Measurements published in patent US20150329519A1, “Formulations Comprising Lipoyl Compounds” (Ischemix, LLC, priority 2014, published 2015).

Legend:
[1] = tested on: myocardial damage associated with percutaneous coronary intervention; details: human trial, Kates et al. 2014; cited from earlier work
[2] = tested on: patients with stable coronary artery disease undergoing elective stent placement by PCI; assay: Randomized placebo-controlled study of single IV dose in patients undergoing elective stent placement by PCI (CK-MB, Troponin-T); assay type: in vivo, human; details: for Troponin-T (ng/mL) - Change from baseline (FAP population), Mean / Troponin-T (ng/mL) - Change from baseline (FAP population), Median / Troponin-T (ng/mL), Mean / Troponin-T (ng/mL), Median: Day 1 (24 hours)
Protocol: A prospective, multi-center, blinded, randomized, placebo-controlled study to evaluate single dose regimens of a 10 mg/mL (R)Lip-EA-OH formulation for IV administration or single dose placebo in patients with stable coronary artery disease undergoing elective stent placement by PCI meeting all the eligibility criteria was conducted. The (R)Lip-EA-OH formulation was made in accordance with Example 3 and was administered at one of three doses: 0.8 mg/kg, 1.6 mg/kg and 2.4 mg/kg. The primary objective was to assess the safety of the (R)Lip-EA-OH formulation, ascertained by measuring the changes in CK-MB values up to 24 hours after the last balloon inflation. The secondary objective was to evaluate reduction of myocardial injury associated with stent PCI, as determined by serial measurements of cardiac biomarkers and as determined by continuous and serial ECG readings.
The primary outcome measure was the change in CK-MB at 24 hours after the last balloon inflation and it served as a surrogate marker for myocardial injury considered for safety and efficacy. CK-MB levels were measured on Day 1 at 0, 6, 12, 18, and 24 hours after the last balloon inflation.
The maximum serum concentration of CK-MB (Cmax) is calculated by subtracting the baseline value from the maximum concentration of CK-MB measured at any time point. CK-MB Cmax is correlated to the extent of myocardial injury associated with the PCI. The greatest Cmax value observed was in the placebo group.

[3] = Polymer content by HPLC area counts after formulation or salt formation; assay type: physicochemical
Protocol: The purity of a lipoyl compound was analyzed by reversed-phase high performance liquid chromatography (HPLC). Mobile phase A was 0.1% triflouroacetic acid (TFA) in H2O and mobile phase B was 0.1% TFA in acetontrile (ACN). A linear gradient of 85:15 to 26:74 over 22 minutes at a flow rate of 1.5 mL/min at 30° C. was used. A lipoyl compound was diluted in ethanol:water (1:1) at a concentration of 1 mg/mL and a 25 μL aliquot was injected onto the HPLC. The sample was detected at 220 nm.
The initial procedure used to formulate (R)Lip-EA-OH consisted of the following sequence: • 1. Neutralize solid (R)Lip-EA-OH by treatment with aqueous sodium bicarbonate or sodium hydroxide; • 2. Dilute with water and saline to near the final volume and concentration; and • 3. Adjust pH and add water to final volume and concentration.
This formulation procedure was used effectively to prepare formulation from multiple lots of (R)Lip-EA-OH that were synthesized at scales below 50 g. As the synthetic process was scaled-up, however, partial polymerization of (R)Lip-EA-OH was observed during formulation. […]
Since (R)Lip-EA-OH was converted to the corresponding bis-sodium salt in situ during formulation, a procedure for synthesizing the bis-sodium salt of (R)Lip-EA-OH was examined. […] The isolated polymer was treated with the reducing agent dithiothreitol (DTT), and the resulting sample was analyzed by HPLC. […]

[4] = 2.4 mg/kg dose group compared with other groups
[5] = 0.8, 1.6 or 2.4 mg/kg versus placebo, following PCI

With `C[C@H](NC(=O)[C@H](CCC(=O)O)NC(=O)CCCC[C@@H]1CCSS1)C(=O)O` [(R)Lip-EA-OH, α-N—[(R)-1,2-diothiolane-3-pentanoyl]-L-glutamyl-L-alanine] as the compound, how does the “Protection against myocardial damage associated with percutaneous coronary intervention” value [1] read?
Its value is “statistically significant protection”.

What about the “CK-MB (ng/mL) - Change from Baseline, Mean” value (“CK-MB (ng/mL) - Change” for short) ([2]; 0.8 mg/kg single IV dose of 10 mg/mL formulation, 6 hr after last balloon inflation) of the same compound?
The value was 0.12 ng/mL.

What about the “CK-MB (ng/mL) - Change” value ([2]; 0.8 mg/kg single IV dose of 10 mg/mL formulation, 12 hr after last balloon inflation) of the same compound?
Its value is 1.63 ng/mL.

What about the “CK-MB (ng/mL) - Change” value ([2]; 0.8 mg/kg single IV dose of 10 mg/mL formulation, 18 hr after last balloon inflation) of the same compound?
The value was 1.87 ng/mL.

And the “CK-MB (ng/mL) - Change” value ([2]; 0.8 mg/kg single IV dose of 10 mg/mL formulation, 24 hr after last balloon inflation)?
The value was 1.80 ng/mL.

What about the “Troponin-T (ng/mL) - Change from baseline (FAP population), Mean” value (from here on “Troponin-T (ng/mL) - Change … Mean”) ([2]; 0.8 mg/kg) of the same compound?
Its value is 0.041 ng/mL.

What about the “Troponin-T (ng/mL) - Change from baseline (FAP population), Median” value (shortened to “Troponin-T (ng/mL) - Change … Median”) ([2]; 0.8 mg/kg) of the same compound?
The value was 0.000 ng/mL.

And the “Troponin-T (ng/mL), Mean” value ([2]; 0.8 mg/kg)?
The value was 0.042 ng/mL.

What about the “Troponin-T (ng/mL), Median” value ([2]; 0.8 mg/kg) of the same compound?
The value was 0.000 ng/mL.

And the “CK-MB (ng/mL) - Change” value ([2]; 1.6 mg/kg single IV dose of 10 mg/mL formulation, 6 hr after last balloon inflation)?
Its value is 0.76 ng/mL.

What about the “CK-MB (ng/mL) - Change” value ([2]; 1.6 mg/kg single IV dose of 10 mg/mL formulation, 12 hr after last balloon inflation) of the same compound?
The value was 1.95 ng/mL.

And the “CK-MB (ng/mL) - Change” value ([2]; 1.6 mg/kg single IV dose of 10 mg/mL formulation, 18 hr after last balloon inflation)?
The value was 2.55 ng/mL.

What about the “CK-MB (ng/mL) - Change” value ([2]; 1.6 mg/kg single IV dose of 10 mg/mL formulation, 24 hr after last balloon inflation) of the same compound?
Its value is 2.54 ng/mL.

And the “Troponin-T (ng/mL) - Change … Mean” value ([2]; 1.6 mg/kg)?
Its value is 0.068 ng/mL.

And the “Troponin-T (ng/mL) - Change … Median” value ([2]; 1.6 mg/kg)?
Its value is 0.000 ng/mL.

And the “Troponin-T (ng/mL), Mean” value ([2]; 1.6 mg/kg)?
The value was 0.066 ng/mL.

What about the “Troponin-T (ng/mL), Median” value ([2]; 1.6 mg/kg) of the same compound?
Its value is 0.000 ng/mL.

What about the “CK-MB Cmax as an indicator of injury” value [2, 4] of the same compound?
Its value is “least amount of injury”.

What about the “Efficacy markers of periprocedural injury (changes in Troponin-T, CK-MB AUC0-24, Cmax of CK-MB)” value [2, 4] of the same compound?
The value was “lowest”.

And the “CK-MB (ng/mL) - Change” value ([2]; 2.4 mg/kg single IV dose of 10 mg/mL formulation, 6 hr after last balloon inflation)?
Its value is -0.10 ng/mL.

What about the “CK-MB (ng/mL) - Change” value ([2]; 2.4 mg/kg single IV dose of 10 mg/mL formulation, 12 hr after last balloon inflation) of the same compound?
Its value is 0.10 ng/mL.

And the “CK-MB (ng/mL) - Change” value ([2]; 2.4 mg/kg single IV dose of 10 mg/mL formulation, 18 hr after last balloon inflation)?
Its value is 0.30 ng/mL.

What about the “CK-MB (ng/mL) - Change” value ([2]; 2.4 mg/kg single IV dose of 10 mg/mL formulation, 24 hr after last balloon inflation) of the same compound?
The value was 0.44 ng/mL.

What about the “Troponin-T (ng/mL) - Change … Mean” value ([2]; 2.4 mg/kg) of the same compound?
The value was 0.018 ng/mL.

And the “Troponin-T (ng/mL) - Change … Median” value ([2]; 2.4 mg/kg)?
The value was 0.000 ng/mL.

What about the “Troponin-T (ng/mL), Mean” value ([2]; 2.4 mg/kg) of the same compound?
Its value is 0.019 ng/mL.

And the “Troponin-T (ng/mL), Median” value ([2]; 2.4 mg/kg)?
Its value is 0.000 ng/mL.

What about the “Maximum CK-MB change from baseline (FIG. 3)” value [2, 5] of the same compound?
The value was “less myocardial injury than patients in the placebo group”.

What about the “Troponin T change from baseline in the full analysis population (FIG. 4)” value [2, 5] of the same compound?
Its value is “less myocardial injury than patients in the placebo group”.

And the “Efficacy in reducing myocardial injury / cardioprotective action” value ([2]; patients undergoing stent PCI, 0.8, 1.6 or 2.4 mg/kg)?
Its value is “demonstrated efficacy in reducing the myocardial injury”.

And the “Polymer based upon HPLC area counts” value ([3]; after formulation by the initial procedure (solid neutralized, then diluted), FIG. 1)?
Its value is > 20%.

And the “Polymer by HPLC area count analysis” value ([3]; initially, before formulation)?
Its value is < 0.1%.
